According to patent publication US9499550B2 (BRISTOL-MYERS SQUIBB COMPANY, priority 2012, dated 2016):
Where two headings read alike, the source gives them in different places.

Experiments:
[1] = system: HCV genotype 1b (Con1) replicon in HUH-7 cells; test: HCV replicon luciferase reporter assay, genotype 1b; format: cell-based; settings: Hepatitis C virus, Huh-7, 72 h, 3 days incubation, read-out: LE_1b (EC50, range)
Procedure, shortened: (§1)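 Replicon inhibition for both genotypes was measured as Renilla luciferase signal (EnduRen, 7.5 μM final, 2 h) after 3-day, 37° C exposure of replicon-bearing HUH-7 cells in 4% FCS DMEM, 0.5% DMSO. The 1b construct carries S1179I; the 1a H77 construct carries P1496L and S2204I. Twenty-point, 3-fold dilutions were fitted four-parametrically for EC50, and CC50 was taken from multiplexed Cell Titer-Blue.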

[2] = system: HCV genotype 1a (H77 strain) replicon in HUH-7 cells; test: HCV replicon luciferase reporter assay, genotype 1a; format: cell-based; settings: Hepatitis C virus, Huh-7, 72 h, 3 days incubation, read-out: LE_1a (EC50, range)
Procedure, shortened: as §1

[3] = HCV genotype 1b replicon luciferase
[4] = HCV genotype 1a replicon luciferase
[5] = HCV genotype 1b replicon luciferase assay, range class
[6] = HCV genotype 1a replicon luciferase assay, range class
[7] = GETYPE1B, HCV genotype 1b replicon luciferase
[8] = GETYPE1A, HCV genotype 1a replicon luciferase

Row | Compound | EC50 [1, 3] | EC50 [2, 4] | further results
1 | CCn1nc(O[C@@H]2C[C@H]3C(=O)N[C@]4(C(=O)NS(=O)(=O)C5CC5)C[C@H]4/C=C\CC[C@H](C)C[C@@H](C)[C@H](NC(=O)c4ccc(N(C)C)cc4)C(=O)N3C2)c2ccccc2c1=O [Compound 5073, (2R,6S,7R,9S,13aS,14aR,16aS,Z)—N-(cyclopropylsulfonyl)-6-(4-(dimethylamino)benzamido)-2-((3-ethyl-4-oxo-3,4-dihydrophthalazin-1-yl)oxy)-7,9-dimethyl-5,16-dioxo-1,2,3,5,6,7,8,9,10,11,13a,14,14a,15,16,16a-hexadecahydrocyclopropa[e]pyrrolo[1,2-a][1,4]diazacyclopentadecine-14a-carboxamide] | > 87.4 nM | > 87.4 nM | 
2 | CC(C)Oc1cc2c(Cl)cccc2c(O[C@@H]2C[C@H]3C(=O)N[C@]4(C(=O)NS(=O)(=O)C5(C)CC5)C[C@H]4/C=C\CC[C@H](C)C[C@@H](C)[C@H](NC(=O)OC(C)(C)C)C(=O)N3C2)n1 [Compound 1089, tert-butyl ((2R,6S,7R,9S,13aS,14aR,16aS,Z)-2-((5-chloro-3-isopropoxyisoquinolin-1-yl)oxy)-7,9-dimethyl-14a-(((1-methylcyclopropyl)sulfonyl)carbamoyl)-5,16-dioxo-1,2,3,5,6,7,8,9,10,11,13a,14,14a,15,16,16a-hexadecahydrocyclopropa[e]pyrrolo[1,2-a][1,4]diazacyclopentadecin-6-yl)carbamate] |  |  | EC50 [1, 5]: < 5.46 nM; EC50 [2, 6]: 4.82 to 103 nM
3 | COCCOc1cc2c(Cl)cccc2c(O[C@@H]2C[C@H]3C(=O)N[C@]4(C(=O)NS(=O)(=O)C5(C)CC5)C[C@H]4/C=C\CC[C@@H](C)C[C@@H](C)[C@H](NC(=O)OC(C)(C)C(C)(F)F)C(=O)N3C2)n1 [Compound 1116, 3,3-difluoro-2-methylbutan-2-yl((2R,6S,7R,9R,13aS,14aR,16aS,Z)-2-((5-chloro-3-(2-methoxyethoxyl)isoquinolin-1-yl)oxy)-7,9-dimethyl-14a-(((1-methylcyclopropyl)sulfonyl)carbamoyl)-5,16-dioxo-1,2,3,5,6,7,8,9,10,11,13a,14,14a,15,16,16a-hexadecahydrocyclopropa[e]pyrrolo[1,2-a][1,4]diazacyclopentadecin-6-yl)carbamate] |  |  | EC50 [1, 5]: < 5.46 nM; EC50 [2, 6]: < 5.46 nM
4 | COc1cccc2c(O[C@@H]3C[C@H]4C(=O)N[C@]5(C(=O)NS(=O)(=O)C6(C)CC6)C[C@H]5/C=C\CC[C@H](C)C[C@@H](C)[C@H](NC(=O)OC(C)(C)C(F)(F)F)C(=O)N4C3)nccc12 [Compound 3037, 1,1,1-trifluoro-2-methylpropan-2-yl((2R,6S,7R,9S,13aS,14aR,16aS,Z)-2-((5-methoxyisoquinolin-1-yl)oxy)-7,9-dimethyl-14a-(((1-methylcyclopropyl)sulfonyl)carbamoyl)-5,16-dioxo-1,2,3,5,6,7,8,9,10,11,13a,14,14a,15,16,16a-hexadecahydrocyclopropa[e]pyrrolo[1,2-a][1,4]diazacyclopentadecin-6-yl)carbamate] |  |  | EC50 [1, 5]: < 5.46 nM; EC50 [2, 6]: 4.82 to 103 nM
5 | CCOc1cnc(O[C@@H]2C[C@H]3C(=O)N[C@]4(C(=O)NS(=O)(=O)C5(C)CC5)C[C@H]4/C=C\CC[C@@H](C)C[C@@H](CC)[C@H](NC(=O)OC(C)(C)C)C(=O)N3C2)c2ccccc12 [Compound 4180, tert-butyl (2R,6S,7R,9R,13aS,14aR,16aS,Z)-2-(4-ethoxyisoquinolin-1-yloxy)-7-ethyl-9-methyl-14a-(1-methylcyclopropylsulfonylcarbamoyl)-5,16-dioxo-1,2,3,5,6,7,8,9,10,11,13a,14,14a,15,16,16a-hexadecahydrocyclopropa[e]pyrrolo[1,2-a][1,4]diazacyclopentadecin-6-ylcarbamate] | < 5.46 nM | < 5.46 nM | 
6 | COc1ccc2c(O[C@@H]3C[C@H]4C(=O)N[C@]5(C(=O)NS(=O)(=O)C6(C)CC6)C[C@H]5/C=C\CC[C@@H](C)C[C@@H](C)[C@H](NC(=O)OC(C)(C)C)C(=O)N4C3)ncc(-c3ccc(OC)nc3)c2c1 [Compound 4087, tert-butyl (2R,6S,7R,9R,13aS,14aR,16aS,Z)-2-(6-methoxy-4-(6-methoxypyridin-3-yl)isoquinolin-1-yloxy)-7,9-dimethyl-14a-(1-methylcyclopropylsulfonylcarbamoyl)-5,16-dioxo-1,2,3,5,6,7,8,9,10,11,13a,14,14a,15,16,16a-hexadecahydrocyclopropa[e]pyrrolo[1,2-a][1,4]diazacyclopentadecin-6-ylcarbamate] | < 5.46 nM | < 5.46 nM | 
7 | C[C@@H]1CC/C=C\[C@@H]2C[C@@]2(C(=O)NS(=O)(=O)C2(C)CC2)NC(=O)[C@@H]2C[C@@H](Oc3ncc(OC4CC4)c4ccccc34)CN2C(=O)[C@@H](NC(=O)OC2CCCCC2)[C@H](C)C1 [Compound 4055, cyclohexyl (2R,6S,7R,9R,13aS,14aR,16aS,Z)-2-(4-cyclopropoxyisoquinolin-1-yloxy)-7,9-dimethyl-14a-(1-methylcyclopropylsulfonylcarbamoyl)-5,16-dioxo-1,2,3,5,6,7,8,9,10,11,13a,14,14a,15,16,16a-hexadecahydrocyclopropa[e]pyrrolo[1,2-a][1,4]diazacyclopentadecin-6-ylcarbamate] | < 5.46 nM | < 5.46 nM | 
8 | C[C@@H]1CC/C=C\[C@@H]2C[C@@]2(C(=O)NS(=O)(=O)C2(C)CC2)NC(=O)[C@@H]2C[C@@H](Oc3cnc4cc(F)ccc4n3)CN2C(=O)[C@@H](NC(=O)OC(C)(C)C(F)(F)F)[C@H](C)C1 [Compound 4099] |  |  | EC50 [1, 7]: < 5.46 nM; EC50 [2, 8]: < 5.46 nM
9 | CC[C@@H]1C[C@H](C)CC/C=C\[C@@H]2C[C@@]2(C(=O)NS(=O)(=O)C2(C)CC2)NC(=O)[C@@H]2C[C@@H](Oc3nccc4cc(OC)ccc34)CN2C(=O)[C@H]1NC(=O)OC(C)(C)C(F)(F)F [Compound 4182] |  |  | EC50 [1, 7]: < 5.46 nM; EC50 [2, 8]: < 5.46 nM
10 | COc1ccc2c(O[C@@H]3C[C@H]4C(=O)N[C@]5(C(=O)NS(=O)(=O)C6CC6)C[C@H]5/C=C\CC[C@H](C)C[C@@H](C)[C@H](NC(=O)OC(C)(C)C(F)(F)F)C(=O)N4C3)ncc(OC)c2c1 [Compound 4229] |  |  | EC50 [1, 7]: < 5.46 nM; EC50 [2, 8]: < 5.46 nM
11 | COc1ccc2c(O[C@@H]3C[C@H]4C(=O)N[C@]5(C(=O)NS(=O)(=O)C6(CF)CC6)C[C@H]5/C=C\CC[C@@H](C)C[C@@H](C)[C@H](NC(=O)OC(C)(C)C(C)(F)F)C(=O)N4C3)nc(OC)cc2c1 [Compound 1128] |  |  | EC50 ([1]; GETYPE1B, HCV genotype 1b replicon luciferase assay, range class): < 5.46 nM; EC50 ([2]; GETYPE1A, HCV genotype 1a replicon luciferase assay, range class): < 5.46 nM
12 | CCn1nc(O[C@@H]2C[C@H]3C(=O)N[C@]4(C(=O)NS(=O)(=O)C5(C)CC5)C[C@H]4/C=C\CC[C@@H](C)C[C@@H](C)[C@H](NC(=O)O[C@@H]4C[C@@H]5C[C@@H]5C4)C(=O)N3C2)c2ccccc2c1=O [Compound 5057, (1R,3r,5S)-bicyclo[3.1.0]hexan-3-yl((2R,6S,7R,9R,13aS,14aR,16aS,Z)-2-((3-ethyl-4-oxo-3,4-dihydrophthalazin-1-yl)oxy)-7,9-dimethyl-14a-(((1-methylcyclopropyl)sulfonyl)carbamoyl)-5,16-dioxo-1,2,3,5,6,7,8,9,10,11,13a,14,14a,15,16,16a-hexadecahydrocyclopropa[e]pyrrolo[1,2-a][1,4]diazacyclopentadecin-6-yl)carbamate] | < 5.46 nM | < 5.46 nM | 
13 | CC[C@@H]1C[C@H](C)CC/C=C\[C@@H]2C[C@@]2(C(=O)NS(=O)(=O)C2CC2)NC(=O)[C@@H]2C[C@H](Oc3ncc(OC)c4ccc(F)cc34)CN2C(=O)[C@@H]1NC(=O)OC(C)(C)C [Compound 4001, tert-butyl tert-butyl (2R,6S,7R,9R,13aS,14aR,16aS,Z)-14a-(cyclopropylsulfonylcarbamoyl)-7-ethyl-2-(7-fluoro-4-methoxyisoquinolin-1-yloxy)-9-methyl-5,16-dioxo-1,2,3,5,6,7,8,9,10,11,13a,14,14a,15,16,16a-hexadecahydrocyclopropa[e]pyrrolo[1,2-a][1,4]diazacyclopentadecin-6-ylcarbamate] | < 5.46 nM | < 5.46 nM | 
14 | COc1ccc2c(Cl)ncc(O[C@@H]3C[C@H]4C(=O)N[C@]5(C(=O)NS(=O)(=O)C6(CF)CC6)C[C@H]5/C=C\CC[C@@H](C)C[C@@H](C)[C@H](NC(=O)OC(C)(C)C)C(=O)N4C3)c2c1 [Compound 4380] | 1.01 to 5 nM | 1.01 to 5 nM | 
15 | CCCOc1cnc(O[C@@H]2C[C@H]3C(=O)N[C@]4(C(=O)NS(=O)(=O)C5(C)CC5)C[C@H]4/C=C\CC[C@@H](C)C[C@@H](C)[C@H](NC(=O)OCC4(C)CC4)C(=O)N3C2)c2ccccc12 [Compound 5083, (1-methylcyclopropyl)methyl ((2R,6S,7R,9R,13aS,14aR,16aS,Z)-7,9-dimethyl-14a-(((1-methylcyclopropyl)sulfonyl)carbamoyl)-5,16-dioxo-2-((4-propoxyisoquinolin-1-yl)oxy)-1,2,3,5,6,7,8,9,10,11,13a,14,14a,15,16,16a-hexadecahydrocyclopropa[e]pyrrolo[1,2-a][1,4]diazacyclopentadecin-6-yl)carbamate] | < 5.46 nM | < 5.46 nM | 
